From patent publication EP3995830A1, “METHOD OF PROGNOSIS OF AN INDIVIDUAL HAVING MULTIPLE MYELOMA TO BE SENSITIVE TO A TREATMENT” (Centre national de la recherche scientifique, priority 2020, dated 2022)

System: HMCLs
Test: HMCLs response to drug treatment (IC50 at day 4, CellTiter-Glo assay)
Format: cell-based, human
Settings: classification from IC50 at day 4
Experimental: HMCLs were cultured in RPMI-1640 medium (Gibco, Thermo Fisher Scientific, Waltham, USA) supplemented with 10% fetal bovine serum (Eurobio, Les Ulis, France) and IL-6 (Peprotech, Rocky Hill, USA) for XG cell lines. The inventorsevaluated the sensitivity of HMCLs to lenalidomide and romidepsin (Selleckchem, Houston, USA). The IC50 was determined at day 4 using the CellTiter-Glo assay (Promega, Madison, USA), as previously described. The data represent the mean ± standard deviation of three independent experiments that were carried out on sextuplet culture wells (Figure 6A and 7A).

SMILES: Nc1cccc2c1CN(C1CCC(=O)NC1=O)C2=O (centres unmarked) [lenalidomide]
- sensitivity of HMCLs to lenalidomide (AMO1, JJN3, KMS-12-BM, SKMM2, XG1, XG5, XG7, XG12, XG20 and XG21 HMCLs): resistant
- sensitivity of HMCLs to lenalidomide (OPM2, RPMI8226, XG2, XG6, XG13 and XG19 HMCLs): sensitive
